# Laboratory results published in patent US6921770B2 (priority 2000, dated 2005).
# System: rice blast fungi
# Type: in vivo, Pyricularia grisea
row,Molecule,Inhibiting Ratio (%) (at 250 ppm)
1,"Br.Cn1c(CC(=O)Nc2ccc(Cl)cc2)csc1=Nc1ccc(Oc2ccccc2)cc1 [Compound 319, 2-(4-phenoxyphenylimino)-3-methyl-4-[N-(4-chlorophenyl)carbamoylmethyl]-1,3-thiazol-4-ine hydrobromide]",100
2,"Br.Cc1ccc(NC(=O)Cc2csc(=Nc3ccc(Oc4ccccc4)cc3)n2C)cc1 [Compound 13, 2-(4-phenoxyphenylimino)-3-methyl-4-[N-(4-methylphenyl)carbamoylmethyl]-1,3-thiazol-4-ine hydrobromide]",99
3,"COc1ccc(N=c2scc(CC(=O)Nc3ccc(Cl)cc3)n2C)cc1.Cl [Compound 118, 2-(4-methoxyphenylimino)-3-methyl-4-[N-(4-chlorophenyl)carbamoylmethyl]-1,3-thiazol-4-ine hydrochloride]",99
4,"2-(2-fluorophenylimino)-3-methyl-4-[N-(methoxyphenyl)carbamoylmethyl]-1,3-thiazol-4-ine [Compound 338]",97
5,"Br.COc1ccc(NC(=O)Cc2csc(=Nc3ccc(OC(C)C)cc3)n2C)cc1 [Compound 313, 2-(4-isopropoxyphenylimino)-3-methyl-4-[N-(4-methoxyphenyl)carbamoylmethyl]-1,3-thiazol-4-ine hydrobromide]",100
6,"Cc1ccc(NC(=O)Cc2csc(=Nc3ccc(OC(F)(F)F)cc3)n2C)cc1Cl.Cl [Compound 231, 2-(4-trifluoromethoxyphenylimino)-3-methyl-4-[N-(3-chloro-4-methylphenyl)carbamoylmethyl]-4-thiazoline hydrochloride]",93
7,"2-(3-fluorophenylimino)-3-methyl-4-[N-(methoxyphenyl)carbamoylmethyl]-1,3-thiazol-4-ine [Compound 337]",95
8,"Cl.Cn1c(CC(=O)Nc2ccccc2F)csc1=Nc1ccccc1F [Compound 89, 2-(2-fluorophenylimino)-3-methyl-4-[N-(2-fluorophenyl)carbamoylmethyl]-1,3-thiazol-4-ine hydrochloride]",83
9,"Cl.Cn1c(CC(=O)Nc2ccc(Br)cc2)csc1=Nc1ccc(Oc2ccccc2)cc1 [Compound 141, 2-(4-phenoxyphenylimino)-3-methyl-4-[N-(4-bromophenyl)carbamoylmethyl]-1,3-thiazol-4-ine hydrochloride]",99
10,"Br.Cn1c(CC(=O)Nc2cccc(Cl)c2)csc1=Nc1cccc(C(F)(F)F)c1 [Compound 19, 2-(3-trifluoromethylphenylimino)-3-methyl-4-[N-(3-chlorophenyl)carbamoylmethyl]-1,3-thiazol-4-ine hydrobromide]",91
11,"Cl.Cn1c(CC(=O)Nc2ccc(Br)cc2)csc1=Nc1ccc(Br)cc1 [Compound 143, 2-(4-bromophenylimino)-3-methyl-4-[N-(4-bromophenyl)carbamoylmethyl]-1,3-thiazol-4-ine hydrochloride]",95
12,"Br.Cc1ccc(NC(=O)Cc2csc(=Nc3ccc([N+](=O)[O-])cc3)n2C)cc1 [Compound 16, 2-(4-nitrophenylimino)-3-methyl-4-[N-(4-methylphenyl)carbamoylmethyl]-1,3-thiazol-4-ine hydrobromide]",100
13,"Br.COc1ccc(NC(=O)Cc2csc(=Nc3ccc(Br)cc3)n2C)cc1 [Compound 318, 2-(4-bromophenylimino)-3-methyl-4-[N-(4-methoxyphenyl)carbamoylmethyl]-1,3-thiazol-4-ine hydrobromide]",100
14,"Br.CC(C)=CCOc1cc(N=c2scc(CC(=O)Nc3ccccc3)n2C)ccc1Cl [Compound 22, 2-(4-chloro-3-(3,3-dimethylallyloxy)phenylimino)-3-methyl-4-(N-phenylcarbamoylmethyl)-1,3-thiazol-4-ine hydrobromide]",97
